These results are taken from US7205295B2, “Benzoxazin-3-ones and derivatives thereof as therapeutic agents” (Warner-Lambert Company LLC, priority 2002, dated 2007).

The target in data set [1] is T1, PI3Kγ (p101/p110γ protein) (Homo sapiens, UniProt P48736).
T1 construct: HA; made in house; host or cells: Spodoptera frugiperda (Sf9) cells, baculovirus co-infection
The data set can be described thus: PI3Kγ In Vitro Kinase Assay. The class given is biochemical. Conditions: purified recombinant p101/p110γ with G protein β1/γ2 subunits; 20 μM ATP, 25 μM PIP2; 20 minutes at room temperature. Summed up:
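Sf9-expressed, purified human p101/p110γ (2.7 nM) was activated by Gβ1/γ2 (57.7 nM) and reacted with 20 μM ATP plus [γ-32P]ATP on PIP2 (25 μM)/PE (300 μM) micelles with 10 mM MgCl2 in HEPES buffer. Reactions ran 20 min at room temperature. Filter-captured radiolabeled PIP3 was counted by scintillation.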

T1 sequence (P48736 whole entry, species assumed): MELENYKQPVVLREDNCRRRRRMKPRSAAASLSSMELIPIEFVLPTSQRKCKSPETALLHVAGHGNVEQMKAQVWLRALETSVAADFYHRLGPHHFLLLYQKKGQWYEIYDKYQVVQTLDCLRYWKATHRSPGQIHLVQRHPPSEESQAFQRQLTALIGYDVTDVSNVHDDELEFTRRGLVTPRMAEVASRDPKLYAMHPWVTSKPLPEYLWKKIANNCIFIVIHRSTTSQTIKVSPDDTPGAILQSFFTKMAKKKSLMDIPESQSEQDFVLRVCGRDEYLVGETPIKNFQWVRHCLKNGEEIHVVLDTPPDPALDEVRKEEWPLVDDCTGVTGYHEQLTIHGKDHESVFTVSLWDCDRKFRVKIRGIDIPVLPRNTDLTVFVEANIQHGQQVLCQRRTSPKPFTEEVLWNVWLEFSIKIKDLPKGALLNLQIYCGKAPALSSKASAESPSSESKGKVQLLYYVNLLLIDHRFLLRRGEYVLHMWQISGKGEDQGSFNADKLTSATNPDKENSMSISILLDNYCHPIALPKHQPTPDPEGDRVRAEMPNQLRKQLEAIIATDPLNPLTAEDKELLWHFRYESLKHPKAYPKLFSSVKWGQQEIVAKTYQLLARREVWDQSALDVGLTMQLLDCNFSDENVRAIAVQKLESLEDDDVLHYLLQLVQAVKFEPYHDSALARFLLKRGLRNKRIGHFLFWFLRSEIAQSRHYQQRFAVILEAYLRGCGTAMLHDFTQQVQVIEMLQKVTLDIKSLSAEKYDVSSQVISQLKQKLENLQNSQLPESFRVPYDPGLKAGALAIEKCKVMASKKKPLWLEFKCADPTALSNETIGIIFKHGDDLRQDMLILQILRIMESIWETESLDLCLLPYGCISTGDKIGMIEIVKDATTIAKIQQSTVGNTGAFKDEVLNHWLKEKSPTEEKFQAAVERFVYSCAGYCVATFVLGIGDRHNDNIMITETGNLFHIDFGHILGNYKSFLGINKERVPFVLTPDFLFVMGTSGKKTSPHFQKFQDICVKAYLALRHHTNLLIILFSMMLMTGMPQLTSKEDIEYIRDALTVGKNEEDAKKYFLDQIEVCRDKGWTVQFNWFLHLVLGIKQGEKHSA
T1 sequence (Q8WYR1 whole entry partner, species assumed): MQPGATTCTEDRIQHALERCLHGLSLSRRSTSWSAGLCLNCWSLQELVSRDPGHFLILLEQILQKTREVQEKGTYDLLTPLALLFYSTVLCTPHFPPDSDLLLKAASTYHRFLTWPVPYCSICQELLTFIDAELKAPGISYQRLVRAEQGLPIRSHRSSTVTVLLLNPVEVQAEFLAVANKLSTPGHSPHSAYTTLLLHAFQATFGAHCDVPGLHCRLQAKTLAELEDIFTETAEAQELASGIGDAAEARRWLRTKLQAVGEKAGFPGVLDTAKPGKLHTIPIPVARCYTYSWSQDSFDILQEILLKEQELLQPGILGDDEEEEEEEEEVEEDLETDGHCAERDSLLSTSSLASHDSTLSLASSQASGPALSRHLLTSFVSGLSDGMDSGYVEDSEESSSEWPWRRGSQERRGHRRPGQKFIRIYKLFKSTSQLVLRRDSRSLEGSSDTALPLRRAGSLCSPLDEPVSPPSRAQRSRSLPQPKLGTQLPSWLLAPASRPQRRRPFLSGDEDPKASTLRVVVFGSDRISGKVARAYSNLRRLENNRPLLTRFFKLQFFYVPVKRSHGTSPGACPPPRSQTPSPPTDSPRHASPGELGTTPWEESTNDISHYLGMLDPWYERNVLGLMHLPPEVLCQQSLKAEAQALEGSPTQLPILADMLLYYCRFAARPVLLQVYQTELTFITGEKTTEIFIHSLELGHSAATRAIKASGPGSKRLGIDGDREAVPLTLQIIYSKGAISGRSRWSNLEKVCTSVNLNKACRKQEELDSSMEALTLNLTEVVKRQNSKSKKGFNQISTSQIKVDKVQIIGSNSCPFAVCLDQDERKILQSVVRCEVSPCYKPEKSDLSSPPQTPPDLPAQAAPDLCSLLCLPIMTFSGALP

The molecule `O=C1NC(=S)SC1=Cc1ccc2c(c1)N(OCC1CCCCC1)C(=O)CO2` [Example 208, 4-Cyclohexylmethoxy-6-(4-oxo-2-thioxo-thiazolidin-5-ylidenemethyl)-4H-benzo[1,4]oxazin-3-.one] displayed a melting point of 249 to 250 °C. Further, in data set [1], the IC50 came out at 2 nM.

For the molecule `O=C1NC(=S)SC1=Cc1ccc2c(c1)N(CCc1ccc(Cl)cc1)C(=O)CO2` [Example 134, 4-[2-(4-Chloro-phenyl)-ethyl]-6-(4-oxo-2-thioxo-thiazolidin-5-ylidenemethyl)-4H-1,4-benzoxazin-3-one], the melting point lay in the range of 278 to 280 °C. For the same molecule, the IC50 in data set [1] turned out to be 5 nM.

With `O=C1NC(=S)SC1=Cc1ccc2c(c1)N(CCc1ccc(Cl)cc1Cl)C(=O)CO2` [Example 105, 4-[2-(2,4-Dichloro-phenyl)-ethyl]-6-(4-oxo-2-thioxo-thiazolidin-5-ylidenmethyl)-4H-benzo[1,4]oxazin-3-one], the melting point lay within 267 to 269 °C. For the same molecule, the IC50 in data set [1] was found to be 5 nM.

Take `O=C1NC(=S)SC1=Cc1ccc2c(c1)N(CCc1ccc(Cl)c(Cl)c1)C(=O)CO2` [Example 103, 4-[2-(3,4-Dichloro-phenyl)-ethyl]-6-(4-oxo-2-thioxo-thiazolidin-5-ylidenmethyl)-4H-benzo[1,4]oxazin-3-one]: the melting point fell in the range of 267 to 269 °C. In addition, the IC50 in data set [1] worked out at 4 nM.

`Cc1ccc(CCN2C(=O)COc3ccc(C=C4SC(=S)NC4=O)cc32)cc1` [Example 138, 6-(4-Oxo-2-thioxo-thiazolidin-5-ylidenemethyl)-4-(2-p-tolyl-ethyl)-4H-1,4-benzoxazin-3-one] had a melting point of 267 to 269 °C. In data set [1], the IC50 came out at 10 nM.

In the case of `Cc1ccc(CN2C(=O)COc3ccc(C=C4SC(=S)NC4=O)cc32)cc1C` [Example 97, 4-(3,4-Dimethyl-benzyl)-6-(4-oxo-2-thioxo-thiazolidin-5-ylidenemethyl)-4H-1,4-benzoxazin-3-one], the melting point was greater than 300 °C. Further, the IC50 in data set [1] came to 3 nM.

For the molecule `COc1ccc(C(C)(C)C)cc1CN1C(=O)COc2ccc(C=C3SC(=S)NC3=O)cc21` [Example 95, 4-(5-tert-Butyl-2-methoxy-benzyl)-6-(4-oxo-2-thioxo-thiazolidin-5-ylidenemethyl)-4H-1,4-benzoxazin-3-one], the melting point fell in the range of 255 to 257 °C. Further, the IC50 in data set [1] was 225 nM.

`O=C1NC(=S)SC1=Cc1ccc2c(c1)N(CCc1ccc(F)c(F)c1)C(=O)CO2` [Example 133, 4-[2-(3,4-Difluoro-phenyl)-ethyl]-6-(4-oxo-2-thioxo-thiazolidin-5-ylidenemethyl)-4H-benzo[1,4]oxazin-3-one] showed a melting point of 263 to 266 °C. Moreover, the IC50 in data set [1] amounted to 5 nM.

The molecule `Cc1cc(C)c(C)c(CN2C(=O)COc3ccc(C=C4SC(=S)NC4=O)cc32)c1C` [Example 96, 6-(4-Oxo-2-thioxo-thiazolidin-5-ylidenemethyl)-4-(2,3,5,6-tetramethyl-benzyl)-4H-1,4-benzoxazin-3-one] had a melting point of 277 to 280 °C. For the same molecule, the IC50 in data set [1] was found to be 670 nM.

Molecule `CC(C)(C)c1ccc(CCN2C(=O)COc3ccc(C=C4SC(=S)NC4=O)cc32)cc1` [Example 131, 4-[2-(4-tert-Butyl-phenyl)-ethyl]-6-(4-oxo-2-thioxo-thiazolidin-5-ylidenemethyl)-4H-benzo[1,4]-oxazin-3-one] came in with a melting point of 283 to 285 °C. In addition, the IC50 in data set [1] came to 39 nM.

In turn, `O=C1NC(=S)SC1=Cc1ccc2c(c1)N(OCc1ccc(C(F)(F)F)cc1)C(=O)CO2` [Example 207, 6-(4-Oxo-2-thioxo-thiazolidin-5-ylidenemethyl)-4-(4-trifluoromethyl-benzyloxy)-4H-benzo[1,4]oxazin-3-one] returned a melting point greater than 300 °C. Also, the IC50 in data set [1] was 2 nM.

`O=C1NC(=S)SC1=Cc1ccc2c(c1)N(CCc1ccc(C(F)(F)F)cc1)C(=O)CO2` [Example 104, 6-(Oxo-2-thioxo-thiazolidin-5-ylidenmethyl)-4-[2-(4-trifluoromethyl-phenyl)-ethyl]-4H-benzo[1,4]oxazin-3-one] registered a melting point of 253 to 255 °C. In data set [1], the IC50 came to 2 nM.

`CC(C)(C)c1cc(CON2C(=O)COc3ccc(C=C4SC(=S)NC4=O)cc32)cc(C(C)(C)C)n1` [Example 209, 4-(2,6-Di-tert-butyl-pyridin-4-ylmethoxy)-6-(4-oxo-2-thioxo-thiazolidin-5-ylidenemethyl)-4H-benzo[1,4]oxazin-3-one] yielded a melting point greater than 300 °C. Also, the IC50 in data set [1] is 74 nM.

For the molecule `O=C1NC(=S)SC1=Cc1ccc2c(c1)N(CCc1cccc(C(F)(F)F)c1)C(=O)CO2` [Example 106, 6-(Oxo-2-thioxo-thiazolidin-5-ylidenmethyl)-4-[2-(3-trifluoromethyl-phenyl)-ethyl]-4H-benzo[1,4]oxazin-3-one], the melting point lay within 241 to 243 °C. The IC50 in data set [1] was determined as 9 nM.

Regarding `O=C1NC(=S)SC1=Cc1cc(Cl)c2c(c1)N(CCc1ccc(C(F)(F)F)cc1)C(=O)CO2` [Example 107, 8-Chloro-6-(oxo-2-thioxo-thiazolidin-5-ylidenmethyl)-4-[2-(4-trifluoromethyl-phenyl)-ethyl]-4H-benzo[1,4]oxazin-3-one], the melting point fell in the range of 275 to 277 °C. In addition, the IC50 in data set [1] was 72 nM.

Molecule `O=C1NC(=S)SC1=Cc1ccc2c(c1)N(OCc1ccc(Cl)c(Cl)c1)C(=O)CO2` [Example 88, 4-(3,4-Dichloro-benzyloxy)-6-(4-oxo-2-thioxo-thiazolidin-5-ylidenemethyl)-4H-benzo[1,4]oxazin-3-one] had a melting point greater than 300 °C. In addition, in data set [1], the IC50 is 3 nM.

With `CCN(CC)Cc1ccc(CN2C(=O)COc3c(C)cc(C=C4SC(=S)NC4=O)cc32)cc1` [Example 92, 4-(4-Diethylaminomethyl-benzyl)-8-methyl-6-(4-oxo-2-thioxo-thiazolidin-5-ylidenemethyl)-4H-benzo[1,4]oxazin-3-one], the melting point was 250 to 252 °C. The IC50 in data set [1] worked out at 6 nM.

In the case of `COc1cc(CCN2C(=O)COc3ccc(C=C4SC(=S)NC4=O)cc32)cc(OC)c1` [Example 130, 4-[2-(3,5-Dimethoxy-phenyl)-ethyl]-6-(4-oxo-2-thioxo-thiazolidin-5-ylidenemethyl)-4H-benzo[1,4]oxazin-3-one], the melting point lay within 267 to 269 °C. The IC50 in data set [1] turned out to be 3 nM.

`O=C1NC(=S)SC1=Cc1ccc2c(c1)N(CCc1ccc(Br)cc1)C(=O)CO2` [Example 102, 4-[2-(4-Bromo-phenyl)-ethyl]-6-(4-oxo-2-thioxo-thiazolidin-5-ylidenmethyl)-4H-benzo[1,4]oxazin-3-one] displayed a melting point of 274 to 276 °C. The IC50 in data set [1] came out at 2 nM.

`O=C1NC(=S)SC1=Cc1ccc2c(c1)N(CCc1cccc(Cl)c1)C(=O)CO2` [Example 135, 4-[2-(3-Chloro-phenyl)-ethyl]-6-(4-oxo-2-thioxo-thiazolidin-5-ylidenemethyl)-4H-1,4-benzoxazin-3-one] showed a melting point of 280 to 282 °C. For the same molecule, the IC50 in data set [1] worked out at 5 nM.

For `Cc1cc(C)cc(CON2C(=O)COc3ccc(C=C4SC(=S)NC4=O)cc32)c1` [Example 89, 4-(3,5-Dimethyl-benzyloxy)-6-(4-oxo-2-thioxo-thiazolidin-5-ylidenemethyl)-4H-benzo[1,4]oxazin-3-one], the melting point was greater than 300 °C. Moreover, the IC50 in data set [1] is 4 nM.

Turning to `Cc1cccc(CN2C(=O)COc3ccc(C=C4SC(=S)NC4=O)cc32)c1C` [Example 98, 4-(2,3-Dimethyl-benzyl)-6-(4-oxo-2-thioxo-thiazolidin-5-ylidenemethyl)-4H-benzo[1,4]oxazin-3-one], the melting point is greater than 300 °C. For the same molecule, the IC50 in data set [1] was determined as 5 nM.

The molecule `O=C1NC(=S)SC1=Cc1ccc2c(c1)N(Cc1cccc(-c3ccncc3)c1)C(=O)CO2` [Example 114, 6-(4-Oxo-2-thioxo-thiazolidin-5-ylidenemethyl)-4-(3-pyridin-4-yl-benzyl)-4H-benzo[1,4]-oxazin-3-one] showed a melting point of 297 to 299 °C. For the same molecule, the IC50 in data set [1] was 5 nM.

On to `CN(C)c1ccc(CCN2C(=O)COc3ccc(C=C4SC(=S)NC4=O)cc32)cc1` [Example 132, 4-[2-(4-Dimethylaniino-phenyl)-ethyl]-6-(4-oxo-2-thioxo-thiazolidin-5-ylidenemethyl)-4H-benzo[1,4]-oxazin-3-one], for which the melting point is 266 to 268 °C. In addition, in data set [1], the IC50 came out at 12 nM.

`Cc1ccc(C)c(CN2C(=O)COc3ccc(C=C4SC(=S)NC4=O)cc32)c1` [Example 99, 4-(2,5-Dimethyl-benzyl)-6-(4-oxo-2-thioxo-thiazolidin-5-ylidenemethyl)-4H-1,4-benzoxazin-3-one] showed a melting point greater than 300 °C. In addition, the IC50 in data set [1] was 18 nM.

`CCN(CC)Cc1ccc(CN2C(=O)COc3ccc(C=C4SC(=O)NC4=O)cc32)cc1` [Example 93, 5-[4-(4-Diethylaminomethyl-benzyl)-3-oxo-3,4-dihydro-2H-benzo[1,4]oxazin-6-ylmethylene]-thiazolidine-2,4-dione]: the melting point is 244 to 246 °C. Moreover, the half-inhibitory concentration (IC50) in data set [1] was 16 nM.

In the case of `O=C1NC(=S)SC1=Cc1ccc2c(c1)N(CCc1ccc(Oc3ccccc3)cc1)C(=O)CO2` [Example 129, 6-(4-Oxo-2-thioxo-thiazolidin-5-ylidenemethyl)-4-[2-(4-phenoxy-phenyl)-ethyl]-4H-1,4-benzoxazin-3-one], the melting point lay in the range of 220 to 224 °C. Further, in data set [1], the IC50 was 49 nM.
